Assay results published in patent US20260306633A1, “A COMBINATION THERAPY FOR CANCER TREATMENT” (Purdue Research Foundation, priority 2023, published 2026).
Values joined by “and” are separate entries in the source; they are usually repeats but may differ in a detail not shown here. Identical values can stand only once.

How the values were obtained:
TNBC BT-549 cells = experiment: Cell survival / cell inhibition (MTT cell cytotoxicity assay) after 24 h treatment with photosensitizer and/or chemotherapeutic agent, dark or light-irradiated; assay type: cell-based, human
Protocol: Human mammary epithelial carcinoma cell lines purchased from the American Type Culture Collection BT-549 (ATCC HTB-122) were cultured according to ATCC protocol. BT-549 cells were grown in RPMI 1640 containing 0.023 IU/mL insulin and supplemented with 10% fetal bovine serum (FBS). Cells were grown to 80-90% confluence in 75-cm^2 culture flasks (Corning) for 4-5 days in a humidified incubator (Fisher Scientific Isotemp) with 5% CO2 at 37° C. During the incubation period, growth media was changed once with fresh pre-warmed media (pH 7.2). To harvest the cells, old growth media was aspirated out, and 3 mL 0.25% trypsin solution (Thermo Sci Hyclone) were added. The cells were incubated for 5 minutes, and the cell pellet after centrifugation was resuspended in 3 mL media, broken up gently, then 1 mL of suspended cells was transferred into a new T75 cell culture flask containing pre-warmed media (20 mL) for further culturing.
(§1) Cells were grown to confluence in a 96-well plate (9×10^3 cells/well) and co-treated for 24 hours with synthesized photosensitizers (PSs) and chemotherapeutic agents of varying concentrations ranging from 5 nM to 50 μM) in growth media from a stock solution of 10 mM in DMSO (dimethyl sulfoxide, Fisher). After 24-hour treatment, old growth media containing the PSs or compounds were aspirated out and replaced with fresh media. Plates were then positioned below a non-coherent LumaCare LC-122 650 nm light source for 1 minute at an energy fluence rate of 0.96 J/cm^2 and a power of 16 mW/cm^2 (measured using a Newport optical power meter Model 840). Unirradiated cells served as control samples. The following day, cells were washed with pre-warmed PBS, and 11MTT (3-[4,5-dimethyl-thiazol-2-yl]-2.5-diphenyltetrazolium bromide, Sigma, 0.3 mg/mL) in PBS was added to each well. Samples were allowed to incubate for additional 2 hours, after which dark blue crystals formed. DMSO was added to each well and plates were shaken at room temperature for 1 hour to dissolve the purplish-blue formazan crystals. Absorbance values at 570 nm were measured on a microplate reader (BioRad 550). Cell survival was calculated based on the absorbance of the untreated cells alone (as control) and were directly proportional to the number of viable cells in culture. Results were reported as the mean±SD of triplicate measurements.
The unmetallated PS and the indium complexes were used.
Light dose corresponds to an energy fluence rate of 0.96 J/cm^2 used.
Power of 16 mW/cm^2 used.
Cell inhibition in TNBC cells is based on the cell survival (MTT) assay of the binary therapy, blending the effect of PDT and chemotherapeutic agents. […] MePheo serves as a control compound. TNBC cells were then exposed to light after binary treatment for 24 hours.

TNBC cells [1] = experiment: Combination index (CI) of binary therapy, Chou-Talalay method, CompuSyn software; assay type: cell-based, human
Protocol: (§2) The calculated CI values are based on 50 nM concentration for the PSs, 50 nM paclitaxel, 500 nM doxorubicin, 25 μM cisplatin, 25 μM fluorouracil, and 500 nM methotrexate.
as §1
The combination index (CI) for the binary treatment of TNBC cells with a PS and a chemotherapeutic drug was calculated based on the Chou-Talalay method using CompuSyn software. […] The unified dynamics algorithm uses a minimum of dose-data points to fit the general MAL theory.
as §2

human TNBC BT-549 cells = experiment: Fluorescence microscopy (Hoechst 33258) of cell morphology / cell death pathway; assay type: cell-based
Protocol: Grayscale images of cells stained with Hoechst 33258. Morphology of (A) untreated unirradiated cells, sham control; (B) illuminated cells; (C-E) cells treated with: PSs (InCLA, CBTN, and CPA) and paclitaxel in the dark; (F-H) PSs, followed by 1 minute light exposure; (I) paclitaxel unirradiated; (J-L) PSs and paclitaxel in the dark; (M-O) PSs co-treated with paclitaxel, then light-exposed; (P-Q) PSs co-treated with doxorubicin, then irradiated; (R) PSs and cisplatin, dark; (S-T) PSs and cisplatin, irradiated; (U) fluorouracil, dark; (V) InCLA with fluorouracil in the dark; (W) light-exposed and, (X-Y) PSs with methotrexate with light. Inserts indicate enlarged view. […] Light dose in 1 minute=0.96 J cm^−2; in 30 seconds=0.48 J cm^−2. Concentrations: PSs=50 nM; paclitaxel=50 nM; doxorubicin=500 nM; cisplatin=25 μM; fluororuracil=25 μM; and, methotrexate=500 nM.
Cells (1 mL aliquots) obtained from a diluted cell suspension were seeded into each well (1.7 cm^2, 8×10^3 cells/well) of a 4-well culture slide (BD Biosciences) and grown to confluence in 5% CO2 at 37° C. for 3-4 days for attachment to the substratum. After aspirating the old growth media, 1 mL of the photosensitizer and chemotherapeutic agents (with appropriate concentrations) in fresh pre-warmed media at 37° C. was added to each well. After compound treatment for 24 hours, cells were washed twice with 1 mL fresh growth media, and then irradiated with light using LumaCare LC-122 as described above. Cells were stained in the dark with Hoechst 33258 (Molecular Probes) in pre-warmed media for 10 minutes at 37° C., washed twice with filtered PBS, then fixed with filtered paraformaldehyde for 15 minutes in the incubator. After thorough liquid aspiration, the wells were removed and allowed to air dry in the dark for 1 hour. Slides were protected with coverslips, whose edges were sealed using clear fast-drying nail polish and allowed to dry at room temperature in the dark for 30 minutes. Images were recorded using fluorescence microscopy (DAPI for Hoechst 350-390 nm excitation and 460-490 nm emission filters) using an upright fluorescence microscope with Retiga imaging 2000R (Nikon Optiphot-2, 20× and 40×) and an image processing Nikon NIS-Elements V4.0 Qimaging software.
To determine the preferred cell death pathway for the binary chemophotodynamic therapy, tracking the hallmarks of apoptosis or necrosis was accomplished using a nuclear stain to monitor chromatin condensation and cellular contraction. TNBC cells are spindle-shaped and nearly round with intact cytoplasm, diffused chromatin, distinct cellular membrane, and large oval nuclei staining dark blue with the nuclear stain (FIG. 18A-B).

TNBC cells [2] = experiment: Combination index (CI) of binary therapy, Chou-Talalay method, CompuSyn software; assay type: cell-based, human; settings: PS 50 nM + methotrexate 500 μM (footnote 500 nM)

C=Cc1c(C)c2cc3nc(c(CC(=O)OC)c4[nH]c(cc5nc(cc1[nH]2)C(C)=C5CC)c(C)c4C(=O)NCCCCCCNC(=O)CCNC(=O)[C@H](O)C(C)(C)CO)[C@@H](CCC(=O)OC)[C@@H]3C [CPA, chlorin pantothenic acid conjugate]
cell viability, co-treatment with methotrexate upon light (TNBC BT-549 cells; PS 50 nM + methotrexate 500 nM, light, 1440 min): 66%
cell survival, PS alone (TNBC BT-549 cells; PS 50 nM, light, 1440 min): 99%
cell inhibition (%), combination with cisplatin (TNBC BT-549 cells; PS 100 nM + cisplatin 25 μM, 24 h, light 0.96 J cm−2): 87%
effect of added cisplatin compared to cisplatin-treated cell viability (TNBC BT-549 cells; PS 100 nM + cisplatin 25 μM, light): reduced cell survival
cell survival, co-treatment with cisplatin upon light (TNBC BT-549 cells; PS 100 nM + cisplatin 25 μM, light, 1440 min): 13%
cell survival, co-treatment with doxorubicin in the dark (TNBC BT-549 cells; PS 100 nM + doxorubicin 500 nM, 24 h, dark): 75%
cell inhibition (%), combination with doxorubicin (TNBC BT-549 cells; PS 100 nM + doxorubicin 500 nM, 24 h, light 0.96 J cm−2): 73%
cell survival, co-treatment with doxorubicin upon light (TNBC BT-549 cells; PS 100 nM + doxorubicin 500 nM, light, 1440 min, 0.1 µM): 37% and 27%
best combination partner (TNBC BT-549 cells; PS 100 nM + drug, light): cisplatin is the best, next doxorubicin, then paclitaxel
cell inhibition (%), combination with fluorouracil (TNBC BT-549 cells; PS 100 nM + fluorouracil 25 μM, 24 h, light 0.96 J cm−2): 43%
effect of added fluorouracil compared to fluorouracil-treated cell viability (TNBC BT-549 cells; PS 100 nM + fluorouracil 25 μM, light): reduced cell survival
cell survival, co-treatment with fluorouracil upon light (TNBC BT-549 cells; PS 100 nM + fluorouracil 25 μM, light, 1440 min): 57%
cell inhibition (%), combination with methotrexate (TNBC BT-549 cells; PS 100 nM + methotrexate 500 nM, 24 h, light 0.96 J cm−2): 33%
cell inhibition (%), combination with paclitaxel (TNBC BT-549 cells; PS 100 nM + paclitaxel 50 nM, 24 h, light 0.96 J cm−2): 63%
cell survival, co-treatment with paclitaxel upon light (TNBC BT-549 cells; PS 100 nM + paclitaxel 50 nM, light, 1440 min): 37%
chemophotodynamic potency against TNBC cells, summary (TNBC BT-549 cells; PS 100 nM alone or in combination, light): better activity against TNBC cells than the starting compound MePheo
cell survival, PS alone (TNBC BT-549 cells; PS 100 nM, light 0.96 J/cm^2, 1440 min, 0.1 µM): 75.3% and 75%
cytotoxicity in the absence of light, PS alone (TNBC BT-549 cells; PS 500 nM, dark): No cytotoxicity
combination therapy vs monotherapy (cisplatin) (TNBC BT-549 cells; PS + cisplatin, light): better photodynamic effect when co-treated with cisplatin than PS-treatment alone
combination therapy vs monotherapy (doxorubicin) (TNBC BT-549 cells; PS + doxorubicin, light): better photodynamic effect when co-treated with doxorubicin than PS-treatment alone
combination therapy vs monotherapy (fluorouracil) (TNBC BT-549 cells; PS + fluorouracil, light): better photodynamic effect when co-treated with fluorouracil than PS-treatment alone
combination therapy vs monotherapy (methotrexate) (TNBC BT-549 cells; PS + methotrexate, light): best compared to monotherapy alone and with the other PSs used
cell viability reduction (difference) vs PS alone (TNBC BT-549 cells; PS at lower concentration (CPA: 50 nM) + methotrexate 500 nM, light): 33%
combination index (CI) with cisplatin (TNBC cells [1]; PS 50 nM + cisplatin 25 μM): 1.30
synergism vs additive vs antagonism effect with cisplatin (TNBC cells [1]; PS 50 nM + cisplatin 25 μM): (MA) (MA (1.20-1.45), moderate antagonism)
combination index (CI) with doxorubicin (TNBC cells [1]; PS 50 nM + doxorubicin 500 nM): 1.52
synergism vs additive vs antagonism effect with doxorubicin (TNBC cells [1]; PS 50 nM + doxorubicin 500 nM): (A) (A (1.45-3.3), antagonism)
ranking of combination partners based on CI, decreasing order (TNBC cells [1]; PS 50 nM + drug): paclitaxel>fluorouracil>methotrexate
combination index (CI) with fluorouracil (TNBC cells [1]; PS 50 nM + fluorouracil 25 μM): 0.45
synergism vs additive vs antagonism effect with fluorouracil (TNBC cells [1]; PS 50 nM + fluorouracil 25 μM): (S) (S (0.3-0.7), synergism)
combination index (CI) with paclitaxel (TNBC cells [1]; PS 50 nM + paclitaxel 50 nM): 0.41
synergism vs additive vs antagonism effect with paclitaxel (TNBC cells [1]; PS 50 nM + paclitaxel 50 nM): (S) (S (0.3-0.7), synergism)
cell morphology, PS co-treated with paclitaxel (human TNBC BT-549 cells; PS 50 nM + paclitaxel 50 nM, light (FIG. 18M-O)): shrunk cells and chromatin fragmentation are evident
cell morphology, PS-treated then light (human TNBC BT-549 cells; PS 50 nM, 24 h, light (FIG. 18F-H)): reduced cellular volume and nuclear density
preferred mode of cell death (human TNBC BT-549 cells; PS co-treated with paclitaxel or cisplatin): apoptosis
combination index (CI) with methotrexate (TNBC cells [2]): 0.50
synergism vs additive vs antagonism effect with methotrexate (TNBC cells [2]): (S) (S (0.3-0.7), synergism)
